ChEMBL document CHEMBL1151864, “Substrate based peptide aldehyde inhibits bacterial type I signal peptidase” (Bioorg Med Chem Lett, 2009)
Converted amounts (≈) assume the structure as drawn. The source made the active and inactive calls. The rule behind the calls is not given here. Residues, ends and D or L forms follow the SMILES beside them. *: point of attachment. Decanoyl = CCCCCCCCCC(=O)*

What was measured:
[1] = Inhibition of Staphylococcus aureus type I signal peptidase SpsB-mediated processing of internally quenched fluorescent synthetic peptide substrate
[2] = biological target: Signal peptidase I (Escherichia coli K-12) (UniProt P00803); assay: (§1) Inhibition of Escherichia coli type I signal peptidase lepB
Staphylococcus aureus [3] = assay: Inhibition of Staphylococcus aureus type I signal peptidase SpsB-mediated processing of internally quenched fluorescent synthetic peptide substrate at 200 uM
[4] = tested on: Staphylococcus epidermidis; assay: Antimicrobial activity against Staphylococcus epidermidis by broth microdilution method; format: functional
Staphylococcus aureus [5] = assay: Antimicrobial activity against Staphylococcus aureus by broth microdilution method; format: functional
Escherichia coli = assay: Antimicrobial activity against Escherichia coli by broth microdilution method; format: functional
Signal peptidase I = Signal peptidase I (Escherichia coli K-12, UniProt P00803); assay: as §1
Sequence of Signal peptidase I (P00803 whole entry): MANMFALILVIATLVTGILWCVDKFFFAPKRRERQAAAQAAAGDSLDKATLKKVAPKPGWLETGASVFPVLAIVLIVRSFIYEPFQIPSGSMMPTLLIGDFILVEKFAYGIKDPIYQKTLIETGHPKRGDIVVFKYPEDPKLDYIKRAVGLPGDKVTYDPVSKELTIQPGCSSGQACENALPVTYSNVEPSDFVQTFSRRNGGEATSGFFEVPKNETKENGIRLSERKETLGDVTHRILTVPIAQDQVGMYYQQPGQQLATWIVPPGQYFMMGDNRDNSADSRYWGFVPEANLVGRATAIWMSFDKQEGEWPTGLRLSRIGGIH

Sequence of Signal peptidase I (Escherichia coli K-12) (P00803 whole entry): as above

Compound | IC50 [1] | Activity [2] | inhibition (Staphylococcus aureus [3]) | also measured
CCCCCCCCCC(=O)N[C@@H](C)C(=O)N[C@@H](CCCCN)C(=O)N[C@@H](C)C(=O)N1CCC[C@H]1C(=O)N[C@@H](CO)C(=O)N[C@@H](CCCCN)C(=O)N[C@H](C(=O)N[C@@H](CC(=O)O)C(=O)N[C@@H](CC(=O)O)C(=O)O)[C@@H](C)CC (Decanoyl-AKAPSKIDD-OH) | > 200 µM | inactive | 0% | 
CCCCCCCCCC(=O)N[C@@H](CC(C)C)C(=O)N[C@H](C(=O)N1CCC[C@H]1C(=O)N[C@H](C(=O)N[C@@H](C)C(=O)N[C@@H](CCCCN)C(=O)N[C@@H](C)C(=O)N1CCC[C@H]1C(=O)N[C@@H](CO)C(=O)O)[C@@H](C)O)[C@@H](C)O (Decanoyl-LTPTAKAPS-OH) | 22.5 µM | inactive | 92.9% | 
CCCCCCCCCC(=O)N[C@@H](CC(C)C)C(=O)N[C@H](C(=O)N1CCC[C@H]1C(=O)N[C@H](C(=O)N[C@@H](C)C(=O)N[C@@H](CCCCN)C(=O)N[C@@H](C)C(=O)N1CCC[C@H]1C(=O)N[C@@H](CO)C(=O)N[C@@H](CCCCN)C(=O)O)[C@@H](C)O)[C@@H](C)O (Decanoyl-LTPTAKAPSK-OH) | 1 µM | inactive | 108% | 
CCCCCCCCCC(=O)N[C@@H](CC(C)C)C(=O)N[C@H](C(=O)N1CCC[C@H]1C(=O)N[C@H](C(=O)N[C@@H](C)C(=O)N[C@@H](CCCCN)C(=O)N[C@@H](C)C(=O)N1CCC[C@H]1C(=O)N[C@@H](CO)C(=O)N[C@@H](CCCCN)C(=O)N[C@H](C(=O)O)[C@@H](C)CC)[C@@H](C)O)[C@@H](C)O (Decanoyl-LTPTAKAPSKI-OH) | 2.6 µM | inactive | 107% | 
CCCCCCCCCC(=O)N[C@@H](CC(C)C)C(=O)N[C@H](C(=O)N1CCC[C@H]1C(=O)N[C@H](C(=O)N[C@@H](C)C(=O)N[C@@H](CCCCN)C(=O)N[C@@H](C)C(=O)N1CCC[C@H]1C(=O)N[C@@H](CO)C(=O)N[C@@H](CCCCN)C(=O)N[C@H](C(=O)N[C@@H](CC(=O)O)C(=O)O)[C@@H](C)CC)[C@@H](C)O)[C@@H](C)O (Decanoyl-LTPTAKAPSKID-OH) | 5 µM | inactive | 108% | 
CCCCCCCCCC(=O)N[C@@H](CC(C)C)C(=O)N[C@H](C(=O)N1CCC[C@H]1C(=O)N[C@H](C(=O)N[C@@H](C)C(=O)N[C@@H](CCCCN)C(=O)N[C@@H](C)C(=O)N1CCC[C@H]1C(=O)N[C@@H](CO)C(=O)N[C@@H](CCCCN)C(=O)N[C@H](C(=O)N[C@@H](CC(=O)O)C(=O)N[C@@H](CC(=O)O)C(=O)O)[C@@H](C)CC)[C@@H](C)O)[C@@H](C)O (Decanoyl-LTPTAKAPSKIDD-OH) | 0.8 µM | inactive | 107% | Activity [4]: inactive; Activity (Staphylococcus aureus [5]): inactive; Activity (Escherichia coli): inactive
CCCCCCCCCC(=O)N1CCC[C@H]1C(=O)N[C@H](C(=O)N[C@@H](C)C(=O)N[C@@H](CCCCN)C(=O)N[C@@H](C)C(=O)N1CCC[C@H]1C(=O)N[C@@H](CO)C(=O)N[C@@H](CCCCN)C(=O)N[C@H](C(=O)N[C@@H](CC(=O)O)C(=O)N[C@@H](CC(=O)O)C(=O)O)[C@@H](C)CC)[C@@H](C)O (Decanoyl-PTAKAPSKIDD-OH) | 3.2 µM | inactive | 106% | 
CCCCCCCCCC(=O)N1CCC[C@H]1C(=O)N[C@H](C(=O)N[C@@H](C)C(=O)N[C@@H](CC(N)=O)C(=O)N[C@@H](C)C=O)[C@@H](C)O (Decanoyl-PTANA-aldehyde) | 0.09 µM |  |  | MIC [4]: 500 µg/mL (≈ 819 µM); MIC (Staphylococcus aureus [5]): 125 µg/mL (≈ 205 µM); IC50 (Signal peptidase I): 13.4 µM; MIC (Escherichia coli): > 500 µg/mL
CCCCCCCCCC(=O)N[C@H](C(=O)N[C@@H](C)C(=O)N[C@@H](CCCCN)C(=O)N[C@@H](C)C(=O)N1CCC[C@H]1C(=O)N[C@@H](CO)C(=O)N[C@@H](CCCCN)C(=O)N[C@H](C(=O)N[C@@H](CC(=O)O)C(=O)N[C@@H](CC(=O)O)C(=O)O)[C@@H](C)CC)[C@@H](C)O (Decanoyl-TAKAPSKIDD-OH) | 30.8 µM | inactive | 98% | 
CCCCCCCCCC(=O)N[C@H](C(=O)N1CCC[C@H]1C(=O)N[C@H](C(=O)N[C@@H](C)C(=O)N[C@@H](CCCCN)C(=O)N[C@@H](C)C(=O)N1CCC[C@H]1C(=O)N[C@@H](CO)C(=O)N[C@@H](CCCCN)C(=O)N[C@H](C(=O)N[C@@H](CC(=O)O)C(=O)N[C@@H](CC(=O)O)C(=O)O)[C@@H](C)CC)[C@@H](C)O)[C@@H](C)O (Decanoyl-TPTAKAPSKIDD-OH) | 4.8 µM | inactive | 106% | 
CC[C@H](C)[C@H](NC(=O)[C@H](CCCCN)NC(=O)[C@H](CO)NC(=O)[C@@H]1CCCN1C(=O)[C@H](C)NC(=O)[C@H](CCCCN)NC(=O)[C@H](C)NC(=O)[C@@H](NC(=O)[C@@H]1CCCN1C(=O)[C@@H](NC(=O)[C@@H](N)CC(C)C)[C@@H](C)O)[C@@H](C)O)C(=O)N[C@@H](CC(=O)O)C(=O)N[C@@H](CC(=O)O)C(=O)O (H-LTPTAKAPSKIDD-OH) | > 200 µM | inactive | 21.6% | 
